Measurements from patent US20040171566A1, “Antisense modulation of p38 mitogen activated protein kinase expression” (priority 1999, published 2004).
e = 2'-O-(2-methoxyethyl) (MOE); d = 2'-deoxy (DNA)

Columns and labels:
mouse p38α mRNA = experiment: Mouse p38α mRNA levels in bEND.3 cells, quantitative real-time PCR; assay type: cell-based; parameters: % Inhib. mouse p38α: concentration or dose not given beside the values; details: bEND.3 cells, mRNA by quantitative real-time PCR, average of two experiments
Excerpt: (§1) Quantitation of p38α mRNA levels was accomplished by real-time quantitative PCR using the ABI PRISM™ 7600, 7700, or 7900 Sequence Detection System (PE-Applied Biosystems, Foster City, Calif.) according to manufacturer's instructions. This is a closed-tube, non-gel-based, fluorescence detection system which allows high-throughput quantitation of polymerase chain reaction (PCR) products in real-time. As opposed to standard PCR in which amplification products are quantitated after the PCR is completed, products in real-time quantitative PCR are quantitated as they accumulate. This is accomplished by including in the PCR reaction an oligonucleotide probe that anneals specifically between the forward and reverse PCR primers, and contains two fluorescent dyes. A reporter dye (e.g., FAM or JOE, obtained from either PE-Applied Biosystems, Foster City, Calif., Operon Technologies Inc., Alameda, Calif. or Integrated DNA Technologies Inc., Coralville, Iowa) is attached to the 5′ end of the probe and a quencher dye (e.g., TAMRA, obtained from either PE-Applied Biosystems, Foster City, Calif., Operon Technologies Inc., Alameda, Calif. or Integrated DNA Technologies Inc., Coralville, Iowa) is attached to the 3′ end of the probe. When the probe and dyes are intact, reporter dye emission is quenched by the proximity of the 3′ quencher dye. During amplification, annealing of the probe to the target sequence creates a substrate that can be cleaved by the 5′-exonuclease activity of Taq polymerase. […] With each cycle, additional reporter dye molecules are cleaved from their respective probes, and the fluorescence intensity is monitored at regular intervals by laser optics built into the ABI PRISM™ Sequence Detection System. In each assay, a series of parallel reactions containing serial dilutions of mRNA from untreated control samples generates a standard curve that is used to quantitate the percent inhibition after antisense oligonucleotide treatment of test samples.
(§2) Prior to quantitative PCR analysis, primer-probe sets specific to the target gene being measured are evaluated for their ability to be “multiplexed” with a GAPDH amplification reaction. In multiplexing, both the target gene and the internal standard gene GAPDH are amplified concurrently in a single sample. In this analysis, mRNA isolated from untreated cells is serially diluted. Each dilution is amplified in the presence of primer-probe sets specific for GAPDH only, target gene only (“single-plexing”), or both (multiplexing). Following PCR amplification, standard curves of GAPDH and target mRNA signal as a function of dilution are generated from both the single-plexed and multiplexed samples. If both the slope and correlation coefficient of the GAPDH and target signals generated from the multiplexed samples fall within 10% of their corresponding values generated from the single-plexed samples, the primer-probe set specific for that target is deemed multiplexable. Other methods of PCR are also known in the art.
(§3) PCR reagents were obtained from Invitrogen Corporation, (Carlsbad, Calif.). […] The RT reaction was carried out by incubation for 30 minutes at 48° C. Following a 10 minute incubation at 95° C. to activate the PLATINUM® Taq, 40 cycles of a two-step PCR protocol were carried out: 95° C. for 15 seconds (denaturation) followed by 60° C. for 1.5 minutes (annealing/extension).
(§4) Gene target quantities obtained by real time RT-PCR are normalized using either the expression level of GAPDH, a gene whose expression is constant, or by quantifying total RNA using RiboGreen™ (Molecular Probes, Inc. Eugene, Oreg.). GAPDH expression is quantified by real time RT-PCR, by being run simultaneously with the target, multiplexing, or separately. Total RNA is quantified using RiboGreen™ RNA quantification reagent (Molecular Probes, Inc. Eugene, Oreg.). Methods of RNA quantification by RiboGreen™ are taught in Jones, L. J., et al, (Analytical Biochemistry, 1998, 265, 368-374). […]

rat p38α mRNA = experiment: Rat p38α mRNA levels in NR-8383 cells, quantitative real-time PCR; assay type: cell-based; details: 300 nM oligonucleotide with FuGENE 6, 24 hours, mRNA by quantitative real-time PCR, average of two experiments
Excerpt: as §1, §2, §3, §4

| Substance | % Inhib. mouse p38α (mouse p38α mRNA) | % Inhib. rat p38α (rat p38α mRNA) |
| --- | --- | --- |
| 320165 (antisense TGCCTCATGGCTTGGCATCC; sugars from the 5' end e5 d10 e5, all phosphorothioate, methylation of C not given here) [compound 320165] | 81% | 53% |
| 320141 (antisense GCATGGCTGAGGGATAGCCT; sugars from the 5' end e5 d10 e5, all phosphorothioate, methylation of C not given here) [compound 320141] | 83% | 73% |
| 320167 (antisense CTTGCCTGTAAAAACACAGA; sugars from the 5' end e5 d10 e5, all phosphorothioate, methylation of C not given here) [compound 320167] | 7% | 11% |
| 320144 (antisense CCTTTTAAGGCACAAACAGA; sugars from the 5' end e5 d10 e5, all phosphorothioate, methylation of C not given here) [compound 320144] | 83% | 39% |
| 320148 (antisense CCAGGGCTTCCAGAAGACAG; sugars from the 5' end e5 d10 e5, all phosphorothioate, methylation of C not given here) [compound 320148] | 78% | 33% |
| 320122 (antisense ATTTGCGAAGTTCATCTTCG; sugars from the 5' end e5 d10 e5, all phosphorothioate, methylation of C not given here) [compound 320122] | 73% | 48% |
| 320174 (antisense CCCGCTTGGGCTCCAGTGGC; sugars from the 5' end e5 d10 e5, all phosphorothioate, methylation of C not given here) [compound 320174] | 62% | 29% |
| 320136 (antisense AGCAGGCAGACTGCCAAGGA; sugars from the 5' end e5 d10 e5, all phosphorothioate, methylation of C not given here) [compound 320136] | 83% | 34% |
| 320142 (antisense GAGCCAGTTGGTTCTCTTGG; sugars from the 5' end e5 d10 e5, all phosphorothioate, methylation of C not given here) [compound 320142] | 85% | 53% |
| 320159 (antisense TCTGACATCCTATGGCATAC; sugars from the 5' end e5 d10 e5, all phosphorothioate, methylation of C not given here) [compound 320159] | 94% | 69% |
| 320146 (antisense GGCACTGGAGACCTCTGCAC; sugars from the 5' end e5 d10 e5, all phosphorothioate, methylation of C not given here) [compound 320146] | 74% | 57% |
| 320130 (antisense AGGACTCCATTTCTTCTTGG; sugars from the 5' end e5 d10 e5, all phosphorothioate, methylation of C not given here) [compound 320130] | 81% | 61% |
| 320140 (antisense GGGATAGCCTCAGACCTGAA; sugars from the 5' end e5 d10 e5, all phosphorothioate, methylation of C not given here) [compound 320140] | 61% | 37% |
| 320133 (antisense ACTTGAATGGTATTTGGAGA; sugars from the 5' end e5 d10 e5, all phosphorothioate, methylation of C not given here) [compound 320133] | 52% | 61% |
| 320172 (antisense ACTCTCGCGAGAACAGCTCC; sugars from the 5' end e5 d10 e5, all phosphorothioate, methylation of C not given here) [compound 320172] | 39% | 0% |
| 320124 (antisense GGATTGGCACCAATAAATAC; sugars from the 5' end e5 d10 e5, all phosphorothioate, methylation of C not given here) [compound 320124] | 29% | 31% |
| 320108 (antisense AGATGGGTCACCAGGTACAC; sugars from the 5' end e5 d10 e5, all phosphorothioate, methylation of C not given here) [compound 320108] | 61% | 57% |
| 320164 (antisense CTTGGCATCCTGTTAATGAG; sugars from the 5' end e5 d10 e5, all phosphorothioate, methylation of C not given here) [compound 320164] | 80% | 73% |
| 320143 (antisense AGGCACAAACAGACTGACAG; sugars from the 5' end e5 d10 e5, all phosphorothioate, methylation of C not given here) [compound 320143] | 88% | 54% |
| 320128 (antisense TCAAAGGACTGGTCATAAGG; sugars from the 5' end e5 d10 e5, all phosphorothioate, methylation of C not given here) [compound 320128] | 79% | 37% |
| 320114 (antisense CTTAAAATGAGCTTCAACTG; sugars from the 5' end e5 d10 e5, all phosphorothioate, methylation of C not given here) [compound 320114] | 71% | 60% |
| 320132 (antisense TATTTGGAGAGTTCCCATGA; sugars from the 5' end e5 d10 e5, all phosphorothioate, methylation of C not given here) [compound 320132] | 85% | 56% |
| 320170 (antisense TGCTGGCTATACACAGACAC; sugars from the 5' end e5 d10 e5, all phosphorothioate, methylation of C not given here) [compound 320170] | 83% | 55% |
| 320110 (antisense TCATCAGTGTGCCGAGCCAG; sugars from the 5' end e5 d10 e5, all phosphorothioate, methylation of C not given here) [compound 320110] | 87% | 54% |
| 320168 (antisense TCACCTCATGGCTTGGCATC; sugars from the 5' end e5 d10 e5, all phosphorothioate, methylation of C not given here) [compound 320168] | 83% | 56% |
| 320145 (antisense GACCTCTGCACTGAGGTGAA; sugars from the 5' end e5 d10 e5, all phosphorothioate, methylation of C not given here) [compound 320145] | 52% | 44% |
